# Assay results reported in publication PMC3969223, “Characterization of WZ4003 and HTH-01-015 as selective inhibitors of the LKB1-tumour-suppressor-activated NUAK kinases” (Biochemical Journal, 2013).
# How the values were obtained:
# Test in all cases: Kinase profiling
# Type in all cases: biochemical
# AMPK = tested on: AMPK
# Experimental: (§1) Kinase inhibitor specificity profiling assays were carried out at The International Centre for Protein Kinase Profiling (http://www.kinase-screen.mrc.ac.uk/) against a panel of 140 protein kinases as described previously. Results are presented as a percentage of kinase activity in DMSO control reactions. Protein kinases were assayed in vitro with 0.1 or 1 μM of the inhibitors and the results are presented as an average of triplicate reactions±S.D. or in the form of comparative histograms.
# CHK2 = CHK2 (Homo sapiens, UniProt O96017); conditions: 0.1 or 1 μM inhibitor; mean of triplicate
# Experimental: as §1
# CK1γ 2 = CK1γ 2 (Homo sapiens, UniProt P78368); conditions: 0.1 or 1 μM inhibitor; mean of triplicate
# Experimental: as §1
# CSK = CSK (Homo sapiens, UniProt P41240); conditions: 0.1 or 1 μM inhibitor; mean of triplicate
# Experimental: as §1
# DYRK1A = DYRK1A (Homo sapiens, UniProt Q13627); conditions: 0.1 or 1 μM inhibitor; mean of triplicate
# Experimental: as §1
# EPH-B3 = EPH-B3 (Homo sapiens, UniProt P54753); conditions: 0.1 or 1 μM inhibitor; mean of triplicate
# Experimental: as §1
# ERK2 = ERK2 (Homo sapiens, UniProt P28482); conditions: 0.1 or 1 μM inhibitor; mean of triplicate
# Experimental: as §1
# FGF-R1 = FGF-R1 (Homo sapiens, UniProt P11362); conditions: 0.1 or 1 μM inhibitor; mean of triplicate
# Experimental: as §1
# GSK3β = GSK3β (Homo sapiens, UniProt P49841); conditions: 0.1 or 1 μM inhibitor; mean of triplicate
# Experimental: as §1
# HIPK3 = HIPK3 (Homo sapiens, UniProt Q9H422); conditions: 0.1 or 1 μM inhibitor; mean of triplicate
# Experimental: as §1
# IRAK4 = IRAK4 (Homo sapiens, UniProt Q9NWZ3); conditions: 0.1 or 1 μM inhibitor; mean of triplicate
# Experimental: as §1
# LKB1 = LKB1 (Homo sapiens, UniProt Q15831); conditions: 0.1 or 1 μM inhibitor; mean of triplicate
# Experimental: as §1
# MAP4K5 = MAP4K5 (Homo sapiens, UniProt Q9Y4K4); conditions: 0.1 or 1 μM inhibitor; mean of triplicate
# Experimental: as §1
# MAPKAP-K3 = MAPKAP-K3 (Homo sapiens, UniProt Q16644); conditions: 0.1 or 1 μM inhibitor; mean of triplicate
# Chain of MAPKAP-K3 (Q16644 whole entry): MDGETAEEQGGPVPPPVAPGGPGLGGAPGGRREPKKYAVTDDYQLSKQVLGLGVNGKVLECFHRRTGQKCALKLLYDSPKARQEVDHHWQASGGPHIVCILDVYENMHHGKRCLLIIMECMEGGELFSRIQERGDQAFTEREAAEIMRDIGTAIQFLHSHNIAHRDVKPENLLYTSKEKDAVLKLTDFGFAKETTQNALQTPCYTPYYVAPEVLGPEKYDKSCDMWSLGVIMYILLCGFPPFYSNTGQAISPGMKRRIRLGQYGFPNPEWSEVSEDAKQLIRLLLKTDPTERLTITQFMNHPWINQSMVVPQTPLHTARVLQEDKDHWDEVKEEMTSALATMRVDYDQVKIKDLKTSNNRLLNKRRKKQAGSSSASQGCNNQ
# Experimental: as §1
# MKK2 = MKK2 (Homo sapiens, UniProt P36507); conditions: 0.1 or 1 μM inhibitor; mean of triplicate
# Experimental: as §1
# MNK1 = MNK1 (Homo sapiens, UniProt Q9BUB5); conditions: 0.1 or 1 μM inhibitor; mean of triplicate
# Experimental: as §1
# NEK6 = NEK6 (Homo sapiens, UniProt Q9HC98); conditions: 0.1 or 1 μM inhibitor; mean of triplicate
# Experimental: as §1
# NUAK1 = target: T1, NUAK1 (Homo sapiens, UniProt O60285); conditions: 0.1 or 1 μM inhibitor; mean of triplicate
# T1 construct: made in house; host or cells: HEK-293 cells, transient transfection of pEBG2T construct
# T1 sequence (O60285 1-661): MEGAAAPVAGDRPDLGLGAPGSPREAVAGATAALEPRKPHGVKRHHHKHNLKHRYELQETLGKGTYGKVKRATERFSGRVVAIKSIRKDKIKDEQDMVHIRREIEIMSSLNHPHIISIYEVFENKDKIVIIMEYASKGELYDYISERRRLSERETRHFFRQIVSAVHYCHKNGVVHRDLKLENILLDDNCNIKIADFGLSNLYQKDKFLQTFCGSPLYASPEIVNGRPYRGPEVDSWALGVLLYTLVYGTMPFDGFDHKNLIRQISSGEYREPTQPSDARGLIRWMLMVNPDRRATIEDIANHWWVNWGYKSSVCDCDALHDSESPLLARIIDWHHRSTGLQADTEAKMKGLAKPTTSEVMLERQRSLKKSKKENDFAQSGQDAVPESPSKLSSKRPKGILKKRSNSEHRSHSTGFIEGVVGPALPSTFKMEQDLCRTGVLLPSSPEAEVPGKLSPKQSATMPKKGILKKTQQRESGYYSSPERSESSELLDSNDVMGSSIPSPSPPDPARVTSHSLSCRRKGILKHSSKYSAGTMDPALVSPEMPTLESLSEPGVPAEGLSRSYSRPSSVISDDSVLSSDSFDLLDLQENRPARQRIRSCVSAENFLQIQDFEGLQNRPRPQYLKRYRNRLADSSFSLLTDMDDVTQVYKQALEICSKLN
# Experimental: as §1
# PAK6 = PAK6 (Homo sapiens, UniProt Q9NQU5); conditions: 0.1 or 1 μM inhibitor; mean of triplicate
# Experimental: as §1
# PHK = PHK (Homo sapiens, UniProt Q16816); conditions: 0.1 or 1 μM inhibitor; mean of triplicate
# Chain of PHK (Q16816 whole entry): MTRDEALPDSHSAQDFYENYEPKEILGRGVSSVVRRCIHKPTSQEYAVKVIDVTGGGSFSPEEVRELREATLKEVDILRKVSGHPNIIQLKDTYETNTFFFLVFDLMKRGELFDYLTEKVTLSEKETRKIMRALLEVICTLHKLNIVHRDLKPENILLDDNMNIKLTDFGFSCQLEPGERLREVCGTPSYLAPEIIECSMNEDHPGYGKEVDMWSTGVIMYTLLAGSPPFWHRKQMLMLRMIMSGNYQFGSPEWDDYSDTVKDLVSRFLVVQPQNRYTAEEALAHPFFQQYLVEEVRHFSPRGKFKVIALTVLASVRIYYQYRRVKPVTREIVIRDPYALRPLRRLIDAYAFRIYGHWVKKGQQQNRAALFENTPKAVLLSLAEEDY
# Experimental: as §1
# PIM2 = PIM2 (Homo sapiens, UniProt Q9P1W9); conditions: 0.1 or 1 μM inhibitor; mean of triplicate
# Chain of PIM2 (Q9P1W9 whole entry): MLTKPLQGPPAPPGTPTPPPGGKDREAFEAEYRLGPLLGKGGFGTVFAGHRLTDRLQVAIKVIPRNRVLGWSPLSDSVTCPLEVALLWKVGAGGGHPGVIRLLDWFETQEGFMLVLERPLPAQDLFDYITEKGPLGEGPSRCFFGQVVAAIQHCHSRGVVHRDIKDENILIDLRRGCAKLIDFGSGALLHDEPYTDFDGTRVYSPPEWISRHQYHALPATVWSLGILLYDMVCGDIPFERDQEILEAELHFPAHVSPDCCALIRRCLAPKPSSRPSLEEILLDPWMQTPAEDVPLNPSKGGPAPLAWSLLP
# Experimental: as §1
# PKBα = PKBα (Homo sapiens, UniProt P31749); conditions: 0.1 or 1 μM inhibitor; mean of triplicate
# Chain of PKBα (P31749 whole entry): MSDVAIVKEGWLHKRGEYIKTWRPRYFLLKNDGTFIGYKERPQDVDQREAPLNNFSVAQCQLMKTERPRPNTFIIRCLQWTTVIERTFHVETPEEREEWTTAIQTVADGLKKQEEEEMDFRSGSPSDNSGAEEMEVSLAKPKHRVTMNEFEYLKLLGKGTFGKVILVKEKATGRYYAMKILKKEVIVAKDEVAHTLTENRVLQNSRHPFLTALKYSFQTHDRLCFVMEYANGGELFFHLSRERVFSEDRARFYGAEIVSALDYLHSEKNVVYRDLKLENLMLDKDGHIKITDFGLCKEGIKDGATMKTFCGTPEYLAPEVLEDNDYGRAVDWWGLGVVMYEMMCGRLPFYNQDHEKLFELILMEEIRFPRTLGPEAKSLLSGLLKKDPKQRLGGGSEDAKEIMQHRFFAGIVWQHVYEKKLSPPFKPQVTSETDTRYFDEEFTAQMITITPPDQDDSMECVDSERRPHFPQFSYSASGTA
# Experimental: as §1
# PKBβ = PKBβ (Homo sapiens, UniProt P31751); conditions: 0.1 or 1 μM inhibitor; mean of triplicate
# Experimental: as §1
# RSK2 = RSK2 (Homo sapiens, UniProt P51812); conditions: 0.1 or 1 μM inhibitor; mean of triplicate
# Chain of RSK2 (P51812 whole entry): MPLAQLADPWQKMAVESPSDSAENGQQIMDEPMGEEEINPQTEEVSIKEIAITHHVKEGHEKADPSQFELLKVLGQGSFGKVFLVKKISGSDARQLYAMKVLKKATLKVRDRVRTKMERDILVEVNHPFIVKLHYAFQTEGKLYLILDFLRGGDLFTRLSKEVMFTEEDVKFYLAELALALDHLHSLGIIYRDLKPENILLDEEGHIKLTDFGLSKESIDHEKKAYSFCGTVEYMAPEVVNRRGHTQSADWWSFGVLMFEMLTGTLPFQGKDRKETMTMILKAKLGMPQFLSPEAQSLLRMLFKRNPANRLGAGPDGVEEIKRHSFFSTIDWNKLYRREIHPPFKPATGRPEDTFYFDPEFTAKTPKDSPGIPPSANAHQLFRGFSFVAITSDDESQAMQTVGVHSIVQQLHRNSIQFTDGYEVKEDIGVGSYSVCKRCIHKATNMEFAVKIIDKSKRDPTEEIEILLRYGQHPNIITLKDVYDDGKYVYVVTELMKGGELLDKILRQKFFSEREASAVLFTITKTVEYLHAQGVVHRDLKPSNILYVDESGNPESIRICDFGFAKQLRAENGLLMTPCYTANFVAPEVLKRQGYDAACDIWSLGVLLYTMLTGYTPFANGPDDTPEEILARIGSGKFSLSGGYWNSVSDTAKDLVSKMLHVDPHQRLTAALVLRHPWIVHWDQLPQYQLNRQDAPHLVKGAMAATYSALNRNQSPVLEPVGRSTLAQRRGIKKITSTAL
# Experimental: as §1
# SIK2 = SIK2 (Homo sapiens, UniProt Q9H0K1); conditions: 0.1 or 1 μM inhibitor; mean of triplicate
# Chain of SIK2 (Q9H0K1 whole entry): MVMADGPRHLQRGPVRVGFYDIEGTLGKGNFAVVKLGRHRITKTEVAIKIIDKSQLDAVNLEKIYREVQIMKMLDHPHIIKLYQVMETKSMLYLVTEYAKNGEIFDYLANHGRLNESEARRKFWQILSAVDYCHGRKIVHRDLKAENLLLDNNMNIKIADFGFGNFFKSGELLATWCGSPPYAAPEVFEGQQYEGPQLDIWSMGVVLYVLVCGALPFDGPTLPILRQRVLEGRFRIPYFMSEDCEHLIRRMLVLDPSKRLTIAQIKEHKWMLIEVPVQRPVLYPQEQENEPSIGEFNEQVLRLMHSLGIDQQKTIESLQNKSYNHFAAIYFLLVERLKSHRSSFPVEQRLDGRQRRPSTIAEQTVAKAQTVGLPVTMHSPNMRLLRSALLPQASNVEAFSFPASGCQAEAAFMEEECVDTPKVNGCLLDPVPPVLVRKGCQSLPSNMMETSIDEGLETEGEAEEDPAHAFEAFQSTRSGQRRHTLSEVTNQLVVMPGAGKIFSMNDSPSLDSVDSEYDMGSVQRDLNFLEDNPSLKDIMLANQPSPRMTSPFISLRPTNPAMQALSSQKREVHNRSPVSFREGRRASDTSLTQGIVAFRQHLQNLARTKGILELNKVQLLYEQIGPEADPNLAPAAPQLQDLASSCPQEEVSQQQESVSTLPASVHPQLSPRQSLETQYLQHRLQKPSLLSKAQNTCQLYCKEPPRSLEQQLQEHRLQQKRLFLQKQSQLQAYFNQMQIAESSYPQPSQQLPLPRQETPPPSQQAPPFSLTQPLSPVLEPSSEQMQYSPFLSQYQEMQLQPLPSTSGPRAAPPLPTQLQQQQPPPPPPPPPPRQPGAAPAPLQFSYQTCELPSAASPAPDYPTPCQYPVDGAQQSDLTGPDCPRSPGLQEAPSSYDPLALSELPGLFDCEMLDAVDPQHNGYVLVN
# Experimental: as §1
# SIK3 = SIK3 (Homo sapiens, UniProt Q9Y2K2); conditions: 0.1 or 1 μM inhibitor; mean of triplicate
# Experimental: as §1
# Src = Src (Homo sapiens, UniProt P12931); conditions: 0.1 or 1 μM inhibitor; mean of triplicate
# Experimental: as §1
# TGFBR1 = TGFBR1 (Homo sapiens, UniProt P36897); conditions: 0.1 or 1 μM inhibitor; mean of triplicate
# Chain of TGFBR1 (P36897 34-503): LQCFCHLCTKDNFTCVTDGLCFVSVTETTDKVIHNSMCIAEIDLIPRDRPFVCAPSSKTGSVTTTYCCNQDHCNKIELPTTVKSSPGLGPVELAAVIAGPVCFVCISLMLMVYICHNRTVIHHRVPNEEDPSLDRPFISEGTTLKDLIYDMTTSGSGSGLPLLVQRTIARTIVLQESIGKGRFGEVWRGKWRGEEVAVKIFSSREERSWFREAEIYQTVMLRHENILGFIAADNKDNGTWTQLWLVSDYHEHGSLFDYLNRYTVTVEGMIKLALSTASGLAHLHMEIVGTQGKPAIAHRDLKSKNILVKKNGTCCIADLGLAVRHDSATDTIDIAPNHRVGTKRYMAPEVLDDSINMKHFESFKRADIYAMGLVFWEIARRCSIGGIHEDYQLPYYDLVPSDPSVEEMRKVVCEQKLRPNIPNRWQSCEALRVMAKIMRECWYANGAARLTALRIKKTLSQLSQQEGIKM
# Experimental: as §1
# TIE2 = TIE2 (Homo sapiens, UniProt Q02763); conditions: 0.1 or 1 μM inhibitor; mean of triplicate
# Experimental: as §1
# TLK1 = TLK1 (Homo sapiens, UniProt Q9UKI8); conditions: 0.1 or 1 μM inhibitor; mean of triplicate
# Experimental: as §1
# ULK1 = ULK1 (Homo sapiens, UniProt O75385); conditions: 0.1 or 1 μM inhibitor; mean of triplicate
# Experimental: as §1
# VEG-FR = VEG-FR (Homo sapiens, UniProt P17948); conditions: 0.1 or 1 μM inhibitor; mean of triplicate
# Chain of VEG-FR (P17948 27-1338): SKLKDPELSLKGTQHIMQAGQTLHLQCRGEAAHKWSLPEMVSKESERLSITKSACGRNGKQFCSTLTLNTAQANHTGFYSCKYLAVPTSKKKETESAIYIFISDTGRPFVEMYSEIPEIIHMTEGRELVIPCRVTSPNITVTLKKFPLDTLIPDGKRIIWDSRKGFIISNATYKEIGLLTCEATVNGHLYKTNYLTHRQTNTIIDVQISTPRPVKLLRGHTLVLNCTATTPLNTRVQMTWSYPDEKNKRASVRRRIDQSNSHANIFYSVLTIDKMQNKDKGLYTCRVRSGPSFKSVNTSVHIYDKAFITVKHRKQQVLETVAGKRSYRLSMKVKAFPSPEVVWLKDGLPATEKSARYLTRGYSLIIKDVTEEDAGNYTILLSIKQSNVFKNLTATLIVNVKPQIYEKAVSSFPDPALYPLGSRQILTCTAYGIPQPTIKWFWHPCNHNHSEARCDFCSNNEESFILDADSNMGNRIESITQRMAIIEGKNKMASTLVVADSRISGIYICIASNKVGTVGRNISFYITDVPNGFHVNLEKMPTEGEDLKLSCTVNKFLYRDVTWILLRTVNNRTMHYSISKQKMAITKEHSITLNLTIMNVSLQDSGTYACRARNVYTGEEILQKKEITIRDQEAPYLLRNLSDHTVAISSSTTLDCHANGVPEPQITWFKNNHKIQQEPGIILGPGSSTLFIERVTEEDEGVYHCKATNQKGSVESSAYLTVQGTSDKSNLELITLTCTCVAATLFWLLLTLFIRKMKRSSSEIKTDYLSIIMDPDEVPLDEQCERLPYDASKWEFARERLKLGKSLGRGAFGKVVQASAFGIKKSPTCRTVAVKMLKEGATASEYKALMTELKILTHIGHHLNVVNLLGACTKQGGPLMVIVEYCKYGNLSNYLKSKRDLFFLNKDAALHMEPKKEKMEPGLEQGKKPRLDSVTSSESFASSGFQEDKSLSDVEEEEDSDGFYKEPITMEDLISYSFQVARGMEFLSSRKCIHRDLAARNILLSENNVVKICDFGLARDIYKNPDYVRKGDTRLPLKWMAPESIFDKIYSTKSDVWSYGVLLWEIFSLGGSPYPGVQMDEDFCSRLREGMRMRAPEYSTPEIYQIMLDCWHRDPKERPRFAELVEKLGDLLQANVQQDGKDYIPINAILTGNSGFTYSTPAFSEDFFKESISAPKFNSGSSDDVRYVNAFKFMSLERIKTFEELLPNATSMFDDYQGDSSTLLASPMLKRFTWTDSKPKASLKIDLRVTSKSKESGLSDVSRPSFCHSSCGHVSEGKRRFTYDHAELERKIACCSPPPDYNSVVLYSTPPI
# Experimental: as §1
# p38β MAPK = p38β MAPK (Homo sapiens, UniProt Q15759); conditions: 0.1 or 1 μM inhibitor; mean of triplicate
# Experimental: as §1
SMILES,"CHK2 activity, percentage of DMSO control (CHK2)","CK1γ 2 activity, percentage of DMSO control (CK1γ 2)","CSK activity, percentage of DMSO control (CSK)","DYRK1A activity, percentage of DMSO control (DYRK1A)","EPH-B3 activity, percentage of DMSO control (EPH-B3)","ERK2 activity, percentage of DMSO control (ERK2)","FGF-R1 activity, percentage of DMSO control (FGF-R1)","GSK3β activity, percentage of DMSO control (GSK3β)","HIPK3 activity, percentage of DMSO control (HIPK3)","IRAK4 activity, percentage of DMSO control (IRAK4)","LKB1 activity, percentage of DMSO control (LKB1)","MAP4K5 activity, percentage of DMSO control (MAP4K5)","MAPKAP-K3 activity, percentage of DMSO control (MAPKAP-K3)","MKK2 activity, percentage of DMSO control (MKK2)","MNK1 activity, percentage of DMSO control (MNK1)","NEK6 activity, percentage of DMSO control (NEK6)","NUAK1 activity, percentage of DMSO control (NUAK1)","PAK6 activity, percentage of DMSO control (PAK6)","PHK activity, percentage of DMSO control (PHK)","PIM2 activity, percentage of DMSO control (PIM2)",also measured
Cc1nc(Nc2cnn(C3CCNCC3)c2)nc2c1N(C)C(=O)c1cc3ccccc3cc1N2C [HTH-01-015],105 percentage,109 percentage,103 percentage,89 percentage,120 percentage,125 percentage,105 percentage,119 percentage,96 percentage,103 percentage,98 percentage,106 percentage,96 percentage,111 percentage,102 percentage,99 percentage,11 percentage,95 percentage,104 percentage,106 percentage,"AMPK activity, percentage of DMSO control (AMPK; 0.1 or 1 μM inhibitor, mean of triplicate): 127 percentage; PKBα activity, percentage of DMSO control (PKBα): 87 percentage; PKBβ activity, percentage of DMSO control (PKBβ): 104 percentage; RSK2 activity, percentage of DMSO control (RSK2): 106 percentage; SIK2 activity, percentage of DMSO control (SIK2): 112 percentage; SIK3 activity, percentage of DMSO control (SIK3): 109 percentage; Src activity, percentage of DMSO control (Src): 76 percentage; TGFBR1 activity, percentage of DMSO control (TGFBR1): 102 percentage; TIE2 activity, percentage of DMSO control (TIE2): 84 percentage; TLK1 activity, percentage of DMSO control (TLK1): 106 percentage; ULK1 activity, percentage of DMSO control (ULK1): 132 percentage; VEG-FR activity, percentage of DMSO control (VEG-FR): 97 percentage; p38β MAPK activity, percentage of DMSO control (p38β MAPK): 112 percentage"
CCC(=O)Nc1cccc(Oc2nc(Nc3ccc(N4CCN(C)CC4)cc3OC)ncc2Cl)c1 [WZ4003],40 percentage,102 percentage,105 percentage,102 percentage,113 percentage,107 percentage,66 percentage,88 percentage,91 percentage,92 percentage,87 percentage,108 percentage,91 percentage,98 percentage,104 percentage,79 percentage,6 percentage,104 percentage,54 percentage,101 percentage,"PKBα activity, percentage of DMSO control (PKBα): 98 percentage; PKBβ activity, percentage of DMSO control (PKBβ): 114 percentage; RSK2 activity, percentage of DMSO control (RSK2): 76 percentage; SIK2 activity, percentage of DMSO control (SIK2): 70 percentage; SIK3 activity, percentage of DMSO control (SIK3): 102 percentage; Src activity, percentage of DMSO control (Src): 109 percentage; TGFBR1 activity, percentage of DMSO control (TGFBR1): 102 percentage; TIE2 activity, percentage of DMSO control (TIE2): 94 percentage; TLK1 activity, percentage of DMSO control (TLK1): 91 percentage; ULK1 activity, percentage of DMSO control (ULK1): 52 percentage; VEG-FR activity, percentage of DMSO control (VEG-FR): 74 percentage; p38β MAPK activity, percentage of DMSO control (p38β MAPK): 104 percentage"
CN1C(=O)c2ccccc2N(C)c2nc(Nc3cnn(C4CCNCC4)c3)ncc21 [XMD-17-51],–,–,–,–,–,–,–,–,–,–,–,–,–,–,–,–,–,–,–,–,Inhibition of AMPK in profiling (in words) (AMPK; 1 μM): inhibited
